In US20210059933A1, “HYDROGELS AS ORAL DELIVERY DOSAGE FORMS, METHODS OF MAKING AND USING SAME” (priority 2019, published 2021):
One block for each compound: values may come before it.

What was measured:
[1] = Release of drug from drug-loaded disintegrating hydrogel into simulated gastric fluid, supersaturation by UV-vis; details: 2 hours, 150 rpm, hydrogel from 25% by volume acetal cross-linker, drug loading as in % wt drug
Method: A disintegrating hydrogel is first formed from 0.125 mL of a solution of dimethylformamide containing 25% by volume of the cross-linker triethylene glycol di[ethyl-1-methacryloyloxy poly(ethylene glycol) acetal] and 5% by volume of the photoinitiator 2-hydroxy-2-methylpropiophenone then purified by washing several times in ethanol. This disintegrating hydrogel is then transferred to the same solvent used to maximize the dissolution of the active pharmaceutical ingredient of interest. The hydrogel is transferred to a silicone mold and heated for a minimum amount of time to evaporate a majority of the solvent soaked into the hydrogel pores. Then about 0.1 mL of a solution of the active pharmaceutical ingredient solubilized in the preferred solvent is added to the silicone mold containing the hydrogel, which is allowed to swell in order to absorb the solution. Once absorbed, the solvent is removed in a vacuum oven in order to induce the crystallization of the active pharmaceutical ingredient in the hydrogel pores. The mass of the active pharmaceutical ingredient contained in the disintegrating hydrogel is determined experimentally then normalized by the combined mass of both components to quantify the weight fraction of the active pharmaceutical ingredient.
The hydrogel is added to the vial and allowed to dissolve over the course of 2 hours. The presence of the active pharmaceutical ingredient in the aqueous solution is monitored by ultraviolet-visible spectrometry to quantify the concentration relative to the inherent solubility of the active pharmaceutical ingredient without a hydrogel present. The ratio of the solubility achieved upon release from disintegrating hydrogels to the solubility achieved upon dissolution without disintegrating hydrogels is the supersaturation.

[2] = lipophilic partition coefficient of the drug; cited from earlier work
[3] = drug by itself; cited from earlier work
[4] = Dissolution of drug encapsulated in acid-hydrolysable hydrogels in 0.1M HCl solution (pH=1); type: physicochemical; details: immediate release acid-hydrolysable hydrogels
Excerpt: FIG. 3 is a dissolution profile of vitamin E (tocopherol) encapsulated at various drug loading levels in hydrogels composed of 25% by volume acetal cross-linker into a 0.1M HCl solution (pH=1).
The hydrogel labelled acetal hydrogel [w/ 10% surfactant] {w/ 15% surfactant} were synthesized by polymerizing a pre-cursor solution containing 25% [20%] {20%} by volume of the triethylene glycol di[ethyl-1-methacryloyloxy poly(ethylene glycol) acetal] cross-linker, 0% [3.9%] {3.9%} by volume of methyl methacrylate, 0% [6.1%] {6.1%} by volume of dimethylaminoethyl methacrylate, and 0% [10%] {15%} by volume of a hydrolytically hydrolysable surfactant monomer: acetaldehyde-(stearyl PEG-20 ether)-(acrylate ethylene glycol) acetal. Each drug substance is loaded into the pores of the hydrogel by first dissolving in ethanol and adding the organic solution into a silicone mold containing the pre-formed and washed hydrogel followed by evaporation of the solvent. Sufficient drug substance solution is added to the mold to reach a range of drug loading values.

Compound: COC1=C(OC)C(=O)C(C/C=C(\C)CC/C=C(\C)CC/C=C(\C)CC/C=C(\C)CC/C=C(\C)CC/C=C(\C)CC/C=C(\C)CC/C=C(\C)CC/C=C(\C)CCC=C(C)C)=C(C)C1=O [Coenzyme Q10]
X_sat (supersaturation: ratio of solubility achieved upon release from disintegrating hydrogels to solubility without hydrogels) [1]: 69.1
log P [2]: 9.9
C_s (aqueous solubility) [3]: 0.2 µg/mL

Compound: CCCSc1ccc2nc(NC(=O)OC)[nH]c2c1 [albendazole]
X_sat (supersaturation: ratio of solubility achieved upon release from disintegrating hydrogels to solubility without hydrogels) [1]: 2.01
log P [2]: 2.7
C_s (aqueous solubility) [3]: 22.8 µg/mL

Compound: C[C@@H]1[C@H](O)[C@@H](C)/C=C/C=C/C=C/C=C/C=C/C=C/C=C/[C@H](O[C@@H]2O[C@H](C)[C@@H](O)[C@H](N)[C@@H]2O)C[C@@H]2O[C@](O)(C[C@@H](O)C[C@@H](O)[C@H](O)CC[C@@H](O)C[C@@H](O)CC(=O)O[C@H]1C)C[C@H](O)[C@H]2C(=O)O [amphotericin b]
X_sat (supersaturation: ratio of solubility achieved upon release from disintegrating hydrogels to solubility without hydrogels) [1]: 13.8
log P [2]: 0.8
C_s (aqueous solubility) [3]: 82 µg/mL

Compound: C=C(C)[C@@H]1CCC(C)=C[C@H]1c1c(O)cc(CCCCC)cc1O [cannabidiol (CBD), cannabidiol]
X_sat (supersaturation: ratio of solubility achieved upon release from disintegrating hydrogels to solubility without hydrogels) [1]: 22.3

Compound: CC(C)/N=c1\cc2n(-c3ccc(Cl)cc3)c3ccccc3nc-2cc1Nc1ccc(Cl)cc1 [clofazimine]
C_s (aqueous solubility) [3]: 0.23 µg/mL

Compound: CC/C=C\C/C=C\C/C=C\C/C=C\C/C=C\CCCC(=O)O [eicosapentaenoic acid]
log P [2]: 6.1
C_s (aqueous solubility) [3]: 0.29 µg/mL

Compound: CCCCN(CCCC)CC(O)c1cc(Cl)cc2c1-c1ccc(Cl)cc1/C2=C/c1ccc(Cl)cc1 (centres unmarked) [lumefantrine]
log P [2]: 8.34
C_s (aqueous solubility) [3]: 0.04 µg/mL

Compound: C[C@H]1C[C@@H]2[C@H]([C@@H](O)C[C@@]3(C)[C@H]2CC[C@]3(O)C(=O)CO)[C@@]2(C)C=CC(=O)C=C12 [methylprednisolone]
log P [2]: 1.53

Compound: Cc1cn(-c2cc(NC(=O)c3ccc(C)c(Nc4nccc(-c5cccnc5)n4)c3)cc(C(F)(F)F)c2)cn1 [nilotinib]
log P [2]: 4.51
C_s (aqueous solubility) [3]: 2.01 µg/mL

Compound: Cc1ccc(Nc2nccc(N(C)c3ccc4c(C)n(C)nc4c3)n2)cc1S(N)(=O)=O [pazopanib]
log P [2]: 3.59
C_s (aqueous solubility) [3]: 43.3 µg/mL

supersaturation level of final concentration [4]: ≤ 11 times the intrinsic solubility
Compound: CC(=O)[C@H]1CC[C@H]2[C@@H]3CCC4=CC(=O)CC[C@]4(C)[C@H]3CC[C@]12C [progesterone]
C_s (aqueous solubility) [3]: 5.5 µg/mL

supersaturation level of final concentration [4]: up to 74 times the intrinsic solubility
Compound: tocopherol [tocopherol (vitamin E)]
